Measurements taken from ChEMBL document CHEMBL5518193, “Discovery of N-alkyl-N-benzyl thiazoles as novel TRPC antagonists for the treatment of glioblastoma multiforme” (Eur J Med Chem, 2024).

Key:
[1] = target: T1, Short transient receptor potential channel 6 (Mus musculus, UniProt Q61143); assay: Antagonist activity at mouse TRPC6 stably expressed in HEK293 cells inhibition of calcium influx by calcium fluorescence assay; assay type: cell-based
T1 sequence (Q61143 whole entry): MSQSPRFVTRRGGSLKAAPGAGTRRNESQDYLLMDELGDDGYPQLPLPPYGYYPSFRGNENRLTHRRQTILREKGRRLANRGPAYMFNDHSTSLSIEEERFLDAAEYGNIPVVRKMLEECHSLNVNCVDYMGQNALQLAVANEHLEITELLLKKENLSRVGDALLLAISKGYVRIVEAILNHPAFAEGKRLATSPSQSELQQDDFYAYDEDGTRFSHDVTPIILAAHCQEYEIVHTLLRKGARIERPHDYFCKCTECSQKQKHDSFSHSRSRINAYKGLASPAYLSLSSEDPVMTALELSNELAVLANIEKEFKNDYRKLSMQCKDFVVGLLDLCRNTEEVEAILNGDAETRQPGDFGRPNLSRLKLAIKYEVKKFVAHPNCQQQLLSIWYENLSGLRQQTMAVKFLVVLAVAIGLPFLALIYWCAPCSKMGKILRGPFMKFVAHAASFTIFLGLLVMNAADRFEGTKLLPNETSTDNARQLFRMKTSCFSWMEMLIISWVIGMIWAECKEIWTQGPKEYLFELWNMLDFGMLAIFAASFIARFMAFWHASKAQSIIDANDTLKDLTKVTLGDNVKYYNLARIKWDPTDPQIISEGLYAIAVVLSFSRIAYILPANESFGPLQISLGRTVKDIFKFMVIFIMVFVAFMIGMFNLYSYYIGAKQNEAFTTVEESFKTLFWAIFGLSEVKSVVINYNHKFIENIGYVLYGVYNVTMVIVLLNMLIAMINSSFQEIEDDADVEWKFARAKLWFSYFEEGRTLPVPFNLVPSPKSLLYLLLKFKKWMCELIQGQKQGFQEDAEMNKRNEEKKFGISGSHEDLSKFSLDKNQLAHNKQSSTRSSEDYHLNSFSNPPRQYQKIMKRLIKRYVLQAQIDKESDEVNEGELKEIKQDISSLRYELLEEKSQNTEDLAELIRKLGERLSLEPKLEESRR

[2] = target: T2, Short transient receptor potential channel 7 (Homo sapiens, UniProt Q9HCX4); assay: Antagonist activity at human TRPC7 stably expressed in HEK293 cells inhibition of calcium influx by calcium fluorescence assay; assay type: cell-based
T2 sequence (Q9HCX4 whole entry): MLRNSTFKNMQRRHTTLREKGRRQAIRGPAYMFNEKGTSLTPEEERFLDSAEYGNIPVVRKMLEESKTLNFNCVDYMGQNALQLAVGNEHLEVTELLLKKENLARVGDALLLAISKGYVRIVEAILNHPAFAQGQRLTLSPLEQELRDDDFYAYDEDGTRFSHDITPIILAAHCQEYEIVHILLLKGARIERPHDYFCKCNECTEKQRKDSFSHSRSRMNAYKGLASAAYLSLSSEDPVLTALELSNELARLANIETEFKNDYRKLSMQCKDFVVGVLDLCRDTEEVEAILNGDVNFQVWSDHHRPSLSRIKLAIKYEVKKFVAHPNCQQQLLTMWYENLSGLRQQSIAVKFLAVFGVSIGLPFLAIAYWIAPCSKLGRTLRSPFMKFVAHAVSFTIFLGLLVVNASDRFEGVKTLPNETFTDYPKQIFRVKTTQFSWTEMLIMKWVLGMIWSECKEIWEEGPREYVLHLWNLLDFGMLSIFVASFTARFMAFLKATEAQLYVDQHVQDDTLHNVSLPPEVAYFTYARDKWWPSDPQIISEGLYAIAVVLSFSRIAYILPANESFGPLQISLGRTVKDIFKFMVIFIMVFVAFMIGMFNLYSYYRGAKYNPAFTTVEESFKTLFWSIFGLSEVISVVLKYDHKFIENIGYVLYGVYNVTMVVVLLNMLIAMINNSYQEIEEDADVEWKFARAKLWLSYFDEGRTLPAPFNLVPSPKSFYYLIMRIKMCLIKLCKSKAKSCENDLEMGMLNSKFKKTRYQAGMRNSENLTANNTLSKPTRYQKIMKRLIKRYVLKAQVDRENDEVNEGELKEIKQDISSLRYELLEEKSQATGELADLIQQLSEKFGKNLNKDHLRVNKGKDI

[3] = tested on: U-87 MG; assay: Antiproliferative activity against human U87 cells assessed as reduction in cell viability incubated for 72 hrs by MTT assay; assay type: functional, cell-based, U-87MG ATCC
[4] = Tmax in BALB/c mouse at 12.5 mg/kg, ip administered as liposome encapsulated form measured upto 24 hrs by LC-MS/MS analysis; assay type: ADME, organism-based; details: in vivo
[5] = Tmax in BALB/c mouse at 25 mg/kg, ip administered as liposome encapsulated form and measured upto 24 hrs by LC-MS/MS analysis; assay type: ADME, organism-based; details: in vivo
[6] = Tmax in BALB/c mouse at 50 mg/kg, ip administered as liposome encapsulated form and measured upto 24 hrs by LC-MS/MS analysis; assay type: ADME, organism-based; details: in vivo
[7] = Terminal half life in BALB/c mouse at 25 mg/kg, ip administered as liposome encapsulated form and measured upto 24 hrs by LC-MS/MS analysis; assay type: ADME, organism-based; details: in vivo, read-out: beta t1/2 (converted)
[8] = Terminal half life in BALB/c mouse at 50 mg/kg, ip administered as liposome encapsulated form and measured upto 24 hrs by LC-MS/MS analysis; assay type: ADME, organism-based; details: in vivo, read-out: beta t1/2 (converted)
[9] = Apparent clearance in BALB/c mouse at 25 mg/kg, ip administered as liposome encapsulated form and measured upto 24 hrs by LC-MS/MS analysis; assay type: ADME, organism-based; details: in vivo, read-out: CL(app) (converted)
[10] = AUC (0 to t) in BALB/c mouse at 25 mg/kg, ip administered as liposome encapsulated form and measured upto 24 hrs by LC-MS/MS analysis; assay type: ADME, organism-based; details: in vivo
[11] = AUC (0 to infinity) in BALB/c mouse at 12.5 mg/kg, ip administered as liposome encapsulated form and measured upto 24 hrs by LC-MS/MS analysis; assay type: ADME, organism-based; details: in vivo
[12] = AUC (0 to infinity) in BALB/c mouse at 50 mg/kg, ip administered as liposome encapsulated form and measured upto 24 hrs by LC-MS/MS analysis; assay type: ADME, organism-based; details: in vivo
[13] = Cmax in BALB/c mouse at 12.5 mg/kg, ip administered as liposome encapsulated form and measured upto 24 hrs by LC-MS/MS analysis; assay type: ADME, organism-based; details: in vivo
[14] = Selectivity index, ratio of IC50 for human HCT-116 cells to IC50 for human U87 cells; assay type: functional
[15] = Selectivity index, ratio of IC50 for human LNCaP cells to IC50 for human U87 cells; assay type: functional

NCCN(Cc1ccc2ccccc2c1)c1nc(C(=O)Nc2ccc(O)cc2)cs1
IC50 [1]: 2.9 µM
IC50 [2]: 3.4 µM
IC50 [3]: 5.7 µM
Tmax [4]: 4 h
Tmax [5]: 4 h
Tmax [6]: 4 h
half-life [7]: 3.4 h
half-life [8]: 3.8 h
CL/F [9]: 60.2 mL/min/kg
AUC(0-t) at 24 h [10]: 6840 ng·h/mL
AUC(0-inf) [11]: 2790 ng·h/mL
AUC(0-inf) [12]: 16800 ng·h/mL
Cmax [13]: 288 ng/mL
Ratio IC50 [14]: 2
Ratio IC50 [15]: 2
